Reference: article PMC5963757, “Expression, purification, and inhibition profile of dihydrofolate reductase from the filarial nematode Wuchereria bancrofti” (PLoS ONE, 2018)
Where two headings read alike, the source gives them in different places.

Columns and labels:
WbDHFR [1] = biological target: T1, WbDHFR (Wuchereria bancrofti, UniProt J9F199); type: biochemical
Procedure: Compounds (-)-epicatechin, (-)-epicatechin gallate, and vitexin were tested as inhibitors of WbDHFR and BmDHFR. The compounds (-)-epicatechin and (-)-epicatechin gallate were synthesized as described previously. […] Disappearance of DHF and NADPH was observed by measuring absorbance at 340 nm to measure the DHFR activity in a SpectraMax M3 microplate reader. […] All experiments were completed in triplicate.

WbDHFR [2] = biological target: T1, WbDHFR
Procedure: To determine the mechanism of inhibition, Dixon plots were created and analyzed for the inhibitors against WbDHFR. We determined WbDHFR activity as described above at DHF concentrations of 2 μM, 4 μM, and 8 μM in 200 μL reaction volumes. WbDHFR (6 nM) and 100 μM NADPH cofactor were included in 1 X MTEN buffer at pH 6.0. […] The reciprocal initial velocities were plotted against inhibitor concentration for each substrate in Excel to create the Dixon plots. Substrate trend-lines were extended to calculate the intersection point,–KI. Each Dixon plot was generated in triplicate.
A linear equation was fitted to the data at each substrate concentration. […] The KI values for BmDHFR in Table 1 were obtained using the Cheng-Prusoff Equation [18]. […] Inhibitor structures are shown in supporting information (S2 Fig).

[3] = read-out: IC50 WbDHFR, pH 6.0, 100 μM NADPH, 50 μM DHF, 12.1 nM WbDHFR, average of triplicates ± S.D.
[4] = read-out: IC50 against WbDHFR Average, average of three trials
[5] = read-out: IC50 against WbDHFR Trial 1, individual trial
[6] = read-out: IC50 against WbDHFR Trial 2, individual trial
[7] = read-out: IC50 against WbDHFR Trial 3, individual trial
[8] = read-out: KI Trial 1, WbDHFR, individual trial, Dixon plot
[9] = read-out: KI Trial 2, WbDHFR, individual trial, Dixon plot
[10] = read-out: KI Trial 3, WbDHFR, individual trial, Dixon plot
[11] = read-out: KI WbDHFR, from Dixon plots, 6 nM WbDHFR, 100 μM NADPH, DHF 2, 4, 8 μM, pH 6.0, ± S.D.
[12] = read-out: Average KI, WbDHFR, average of three trials, Dixon plots

SMILES	IC50 (WbDHFR [1]; [3]) [µM]	IC50 (WbDHFR [1]; [4]) [µM]	IC50 (WbDHFR [1]; [5]) [µM]	IC50 (WbDHFR [1]; [6]) [µM]	IC50 (WbDHFR [1]; [7]) [µM]	Ki (WbDHFR [2]; [8]) [µM]	Ki (WbDHFR [2]; [9]) [µM]	Ki (WbDHFR [2]; [10]) [µM]	Ki (WbDHFR [2]; read-out: KI WbDHFR, as stated in text (abstract, discussion)) [µM]	Ki (WbDHFR [2]; [11]) [µM]	Ki (WbDHFR [2]; [12]) [µM]
Oc1cc(O)c2c(c1)O[C@H](c1ccc(O)c(O)c1)[C@H](O)C2 [(-)-Epicatechin, (-)-epicatechin]	> 2500	–	–	–	–	–	–	–	–	–	–
Nc1nc(N)c2nc(CNc3ccc(C(=O)N[C@@H](CCC(=O)O)C(=O)O)cc3)cnc2n1 [Aminopterin, aminopterin]	0.014 ± 0.005	0.0144	0.0203	0.00996	0.013	0.0026	0.00219	0.0016	0.0021 ± 0.0005	0.0021 ± 0.0005	–
CCc1nc(N)nc(N)c1-c1ccc(Cl)cc1 [Pyrimethamine, pyrimethamine]	454 ± 37	454	449	494	420	20.3	15.9	8.89	–	15 ± 6	15
Cc1nc2ccc(CN(C)c3ccc(C(=O)N[C@@H](CCC(=O)O)C(=O)O)s3)cc2c(=O)[nH]1 [Raltitrexed, raltitrexed]	18 ± 10	17.8	28.6	11.7	13	0.536	1.09	3.32	–	–	1.6
O=c1cc(-c2ccc(O)cc2)oc2c([C@@H]3O[C@H](CO)[C@@H](O)[C@H](O)[C@H]3O)c(O)cc(O)c12 [Vitexin, vitexin]	> 240	–	–	–	–	–	–	–	–	–	–
